Assay results published in publication PMC11597817, “Modulation of Multispecific Transporters by Uncaria tomentosa Extract and Its Major Phytoconstituents” (Pharmaceutics, 2024).
Where two headings read alike, the source gives them in different places.

Legend:
Assay type in all cases: cell-based
ENT1 = molecular target: T1, ENT1 (Homo sapiens, UniProt Q99808); test: Uptake inhibition assay, ENT1-overexpressing MDCKII cells; conditions: for IC50: oxindole alkaloids, substrate uridine, read-out: IC50 (95% CI of IC50)
T1 construct: expressed in transfected cells; host or cells: MDCKII (lentiviral transduction; cDNA synthesised by GenScript)
T1 sequence (Q99808 1-456): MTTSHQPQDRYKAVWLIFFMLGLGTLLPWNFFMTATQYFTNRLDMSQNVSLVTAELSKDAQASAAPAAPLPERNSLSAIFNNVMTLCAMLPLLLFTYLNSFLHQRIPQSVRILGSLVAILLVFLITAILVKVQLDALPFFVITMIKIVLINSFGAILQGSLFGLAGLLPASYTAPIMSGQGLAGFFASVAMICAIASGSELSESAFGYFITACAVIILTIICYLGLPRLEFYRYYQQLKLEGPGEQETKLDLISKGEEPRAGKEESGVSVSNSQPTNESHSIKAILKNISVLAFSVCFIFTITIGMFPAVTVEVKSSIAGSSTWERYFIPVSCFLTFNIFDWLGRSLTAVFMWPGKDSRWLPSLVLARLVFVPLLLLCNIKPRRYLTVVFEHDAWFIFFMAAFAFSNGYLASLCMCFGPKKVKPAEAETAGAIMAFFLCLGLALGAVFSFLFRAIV
Description: The human embryonic kidney 293 (HEK293) cell line was purchased from Invitrogen/ThermoFisher (Waltham, MA, USA). Madin–Darby canine kidney II (MDCKII) wild type cells were obtained from the European Collection of Authenticated Cell Cultures (ECACC catalog no. 00062107). HEK293 cells overexpressing the human uptake OATP1B1 (NCBI Reference Sequence: NM_006446.4), OATP1B3 (NM_019844), OATP2B1 (NM_007256), OATP1A2 (NM_134431), OAT1-3 (BC033682.1; NM_006672.3; BC022387), OCT1-3 (BC126364.1; NM_003058; NM_021977), OCTN1 (NM_003059.3), NTCP (NM_003049.3), MATE1 (NM_018242.3), MATE2K (NM_001099646.2), ENT4 (NM_001040661.1), SGLT2 (AJ133127.1), ASCT1/2 (NM_003038.5; NM_005628.3), LAT1/2 (NM_003486.6; NM_012244.4), and THTR1/2 (NM_006996; NM_025243) and mock and human efflux BCRP (NM_004827.2), BSEP (NM_003742.2), MDR1 (NM_000927.4), and MRP1-5 (NM_004996; NM_000392.4; BC137347.1; NM_005845.4; NM_005688.2) transporters as well as MDCKII overexpressing human ENT1/2 (NM_001078177; NM_001532.2) and URAT1 (BC053348) transporters were created by lentiviral transduction. The cDNA encoding respective transporters were synthetized and cloned by GenScript (Piscataway, NJ, USA). […]
(§1) Plated cells were preincubated with a transport buffer (HBSS) containing 30 or 150 µg/mL of UT extract or 100 µM of isopteropodine, mitraphylline, or uncarine D for 15 min at an appropriate temperature. […] For radiolabeled substrates, accumulation was measured by liquid scintillation counting (MicroBeta Scintillation Counter, PerkinElmer).
(§2) The transporter-mediated uptake and ATP-dependent transport were determined by subtracting the activity of the control cell/transporter abundant-membrane in the presence of AMP from the activity of the transporter-overexpressing cell/transporter-abundant membrane in the presence of ATP. The relative transporter-specific accumulation was expressed as the percent of DMSO activity. […] Confidence intervals (CIs) of 95% were also determined. […]

OCT2 = molecular target: T2, OCT2 (Homo sapiens, UniProt O15244); test: Uptake inhibition assay, OCT2-overexpressing HEK293 cells; conditions: oxindole alkaloids; substrate metformin; read-out: IC50 (95% CI of IC50)
T2 construct: expressed in transfected cells; host or cells: HEK293 (lentiviral transduction; cDNA synthesised by GenScript)
T2 sequence (O15244 whole entry): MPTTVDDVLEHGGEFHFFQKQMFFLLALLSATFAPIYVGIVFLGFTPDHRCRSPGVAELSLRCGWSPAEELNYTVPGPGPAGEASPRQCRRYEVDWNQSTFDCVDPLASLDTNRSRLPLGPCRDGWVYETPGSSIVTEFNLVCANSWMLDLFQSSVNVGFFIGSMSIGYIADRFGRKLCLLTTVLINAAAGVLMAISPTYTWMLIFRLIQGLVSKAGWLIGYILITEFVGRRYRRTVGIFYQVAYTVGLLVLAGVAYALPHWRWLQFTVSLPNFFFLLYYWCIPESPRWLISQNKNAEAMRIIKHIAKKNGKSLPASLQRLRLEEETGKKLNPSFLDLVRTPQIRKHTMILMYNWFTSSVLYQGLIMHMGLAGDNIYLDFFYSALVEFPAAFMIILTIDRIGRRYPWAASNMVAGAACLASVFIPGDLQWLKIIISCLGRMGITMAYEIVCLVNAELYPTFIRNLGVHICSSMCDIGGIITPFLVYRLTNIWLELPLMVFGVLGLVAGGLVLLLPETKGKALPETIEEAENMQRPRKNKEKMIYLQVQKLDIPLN
Method: (§3) The human embryonic kidney 293 (HEK293) cell line was purchased from Invitrogen/ThermoFisher (Waltham, MA, USA). Madin–Darby canine kidney II (MDCKII) wild type cells were obtained from the European Collection of Authenticated Cell Cultures (ECACC catalog no. 00062107). […]
as §1, §2

OAT1 = molecular target: T3, OAT1 (Homo sapiens, UniProt Q4U2R8); test: Uptake inhibition assay, OAT1-overexpressing HEK293 cells; conditions: at 100 µM
T3 construct: expressed in transfected cells; host or cells: HEK293 (lentiviral transduction; cDNA synthesised by GenScript)
T3 sequence (Q4U2R8 whole entry): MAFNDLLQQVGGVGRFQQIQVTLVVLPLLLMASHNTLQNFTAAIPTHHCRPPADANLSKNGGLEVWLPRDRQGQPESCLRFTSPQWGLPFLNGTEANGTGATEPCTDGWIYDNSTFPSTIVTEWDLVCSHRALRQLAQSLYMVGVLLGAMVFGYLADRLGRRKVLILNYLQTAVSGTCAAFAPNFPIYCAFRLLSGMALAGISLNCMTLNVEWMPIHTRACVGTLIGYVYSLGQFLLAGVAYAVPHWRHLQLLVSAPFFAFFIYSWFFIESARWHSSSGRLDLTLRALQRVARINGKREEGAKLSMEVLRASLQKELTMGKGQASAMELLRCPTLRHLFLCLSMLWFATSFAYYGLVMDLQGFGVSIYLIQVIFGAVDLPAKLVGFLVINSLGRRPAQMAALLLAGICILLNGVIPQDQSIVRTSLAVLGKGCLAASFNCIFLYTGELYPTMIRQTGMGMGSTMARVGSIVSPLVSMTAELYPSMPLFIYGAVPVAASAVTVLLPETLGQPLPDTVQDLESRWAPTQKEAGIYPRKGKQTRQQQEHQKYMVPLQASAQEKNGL
Method: as §3, §1, §2

OAT2 = molecular target: T4, OAT2 (Homo sapiens, UniProt Q9Y694); test: Uptake inhibition assay, OAT2-overexpressing HEK293 cells; conditions: at 100 µM
T4 construct: expressed in transfected cells; host or cells: HEK293 (lentiviral transduction; cDNA synthesised by GenScript)
T4 sequence (Q9Y694 1-546 isoform Q9Y694-2): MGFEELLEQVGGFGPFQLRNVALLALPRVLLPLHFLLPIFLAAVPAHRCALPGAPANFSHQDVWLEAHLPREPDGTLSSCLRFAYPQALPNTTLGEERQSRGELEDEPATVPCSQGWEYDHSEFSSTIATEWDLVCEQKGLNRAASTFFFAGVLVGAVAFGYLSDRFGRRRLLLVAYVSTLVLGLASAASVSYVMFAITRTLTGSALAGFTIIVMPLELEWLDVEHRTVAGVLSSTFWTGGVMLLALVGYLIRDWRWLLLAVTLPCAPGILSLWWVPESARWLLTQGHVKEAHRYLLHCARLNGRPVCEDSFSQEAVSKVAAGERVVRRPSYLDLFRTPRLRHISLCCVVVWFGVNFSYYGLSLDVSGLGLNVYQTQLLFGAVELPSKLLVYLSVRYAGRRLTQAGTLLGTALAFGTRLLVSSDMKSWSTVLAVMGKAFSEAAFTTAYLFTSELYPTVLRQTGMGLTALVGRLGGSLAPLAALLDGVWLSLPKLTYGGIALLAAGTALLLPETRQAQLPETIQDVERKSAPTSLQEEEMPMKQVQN
Method: as §3, §1, §2

`COC(=O)C1=CO[C@@H](C)[C@H]2CN3CC[C@]4(C(=O)Nc5ccccc54)[C@@H]3C[C@H]12` [mitraphylline] was tested, and the transporter-mediated substrate accumulation (ENT1; in the presence of the alkaloid (100 µM, Figure 3)) was “below 50%”, the IC50 (ENT1; listed as Mitraphylline) was 49.6 µM and the IC50 (ENT1) was 49.6 µM.

In the case of `COC(=O)C1=CO[C@@H](C)[C@@H]2CN3CC[C@@]4(C(=O)Nc5ccccc54)[C@@H]3C[C@H]12` [isopteropodine], the IC50 (OCT2) is reported as 16.1 µM, the “decrease of transporter-mediated transport” value (OAT1) is reported as “around 50%” and the “decrease of transporter-mediated transport” value (OAT2) is reported as “around 50%”.
